# Data published in patent US20260115162A1, “COMPOSITION OR ASSOCIATION OF COMPOUNDS PREFERABLY FOR USE IN THE TREATMENT OF NERVOUS DISEASES IN PARTICULAR NEURODEGENERATIVE DISEASES, METHOD FOR THE PREPARATION OF SUCH COMPOSITION OR ASSOCIATION OF COMPOUNDS AND USES THEREOF” (PHARMACEUTICA SAN MARCO S.R.L., priority 2022, published 2026).
# Legend:
# Type in all cases: in vivo
# PSD-95 = PSD-95 in PFC and HIPP of mice treated with Aβ icv, Western blotting (FIG. 12); conditions: after 7 days
# Protocol: (§1) The βCP, FE, βBA and HA4 influence on prefrontal and hippocampal synaptic plasticity was evaluated using anti-PSD-95, anti-synaptophysin, anti-CaMKII antibodies.
# (§2) The Aβ1-42, obtained from Tocris (Bristol, UK), was dissolved in sterile double-distilled pyrogenic-free water, as vehicle, to obtain a final concentration 4 μM [Colaianna M et al. 2010]. Mice were anesthetized with a solution (0.85 in ml/kg, i.p.), containing ketamine (Sigma Aldrich, Milan, Italy, 100 mg/10 ml), xylazine (Sigma Aldrich, Milan, Italy, 100 mg/10 ml) and acepromazine (prequillant, ATI Azienda Terapeutica Veterinaria Srl, 10 mg/10 ml) dissolved in saline solution. […] At the time of dissection, the correct needle track was assessed. […]
# (§3) The total amount of proteins was measured in homogenates by using Pierce BCA Assay (Thermo Fisher Scientific, Cleveland, OH, USA). […] After HRP-conjugated specific antibody incubation, ECL reagent (Bio-Rad Laboratories Inc., Segrate (MI), Italy) was added to the immune complex and chemiluminescence was detected by ChemiDoc MP system (Bio-Rad Laboratories Inc., Segrate (MI), Italy). Optical densities of the bands were measured using Image J software (http://rsb.info.nih.gov/ij/ accessed on 15 Mar. 2021) and normalized against bands relative to -actin (1:5,000, Abcam, Cambridge, UK).
# synaptophysin = experiment: Synaptophysin in PFC and HIPP of mice treated with Aβ icv, Western blotting (FIG. 11); conditions: after 7 days
# Protocol: as §1, §2, §3
# [1] = Plasma and brain levels of βBA and AKBA via os in mice (Gerbeth K et al. 2013)
# From the text: βBA appears not to undergo blood-brain barrier. According to the data of Gerbeth K et al. 2013, brain levels of AKBA were very low, resulting 0.4 per AKBA in the brain/plasma ratio (but 0.81 according to Weber C C et al. 2006). In contrast, the § BA concentration in the brain was even higher than that found in the blood with 32% increase (See Table 1).
# mice treated with Aβ icv = experiment: Splash test in SHAM mice and mice treated with Aβ icv (FIG. 4); conditions: after 7 days, HA4 200 μg, βCP 50 μg, βBA 100 μg, FE 50 μg sublingually
# Protocol: as §2
# Ten μl of the solution (or vehicle alone) were administered sublingually to mice. Brain βCP, FE e βBA were quantified in a separate subset of mice at 5, 15 and 30 min after their administration.
# All behavioral experiments were conducted at 5 or 30 min after sublingual administrations of βBA or vehicle in mice treated with SHAM or AP. Based on the observed behavioral results, neurochemical and biochemical quantifications were performed 30 min after administration of βCP, FE, and βBA or vehicle in SHAM- or Aβ-treated mice.
# Splash test. […] The test was videotaped and later an observer, blind to the trial, scored for latency to the first grooming event and duration of self-care behavior during the period of the test (5 min).
compound,measurement,setting,value
"C[C@H]1[C@H](C)CC[C@]2(C)CC[C@]3(C)C(=CC[C@@H]4[C@@]5(C)CC[C@@H](O)[C@](C)(C(=O)O)[C@@H]5CC[C@]43C)[C@H]12 [βBA, β-boswellic acid]",PSD-95 tissue concentration,PSD-95,remove Aβ-induced alterations in a progressive manner
same,synaptophysin tissue concentration,synaptophysin,remove Ap-induced alterations
same,Δos/brain,[1],26
same,Δos/plasma,[1],39
same,Δplasma/brain,[1],0.68
same,increase of concentration in the brain over that in the blood,[1]; Table 1,32%
same,Splash test latency time (antidepressant effect),mice treated with Aβ icv,antidepressant effect
